Data from patent publication US11866516B2, “Isolated peptide, anti-cancer medicinal composition including the same and method of specifically reducing or inhibiting activities of cancer cells using the same” (National Sun Yat-Sen Univesity, priority 2020, dated 2024).
No end group written: not given here.

Experiments:
[1] = tested on: H4 cells; experiment: propidium iodide (PI) uptake, H4 cells; assay type: cell-based, human; settings: data not shown
Experimental: (§1) Since ATG4 might be required for cancer cell viability and metastatic characteristics, such as migration and invasion, the H4 cells and HCT116 cells were treated with peptides to determine the short- and long-term effects of peptide on cancer cells (FIGS. 4A to 4B).

[2] = tested on: HCT116 cells; experiment: cell viability, HCT116 cells; assay type: cell-based, human; settings: data not shown
Experimental: as §1

[3] = tested on: colorectal cancer HCT116 cells; experiment: cell migration assay, HCT116 cells; assay type: cell-based, human; settings: TAT-GBRL2 at higher dose (20 μM), data not shown
Experimental: (§2) Besides the role of ATG4 in cancer cell survival, ATG4 plays a crucial role in cancer metastasis. Human glioblastoma H4 cells and colorectal cancer HCT116 cells were treated with the peptides for the cell migration assay.

[4] = tested on: H4 cells; experiment: cell viability, H4 cells; assay type: cell-based, human; settings: data not shown
Experimental: as §1

[5] = tested on: HCT116 cells; experiment: propidium iodide (PI) uptake, HCT116 cells; assay type: cell-based, human; settings: data not shown
Experimental: as §1

[6] = tested on: human glioblastoma H4 cells; experiment: cell migration assay, H4 cells; assay type: cell-based; settings: TAT-GBRL2 at higher dose (20 μM), data not shown
Experimental: as §2

[7] = target: T1, recombinant ATG4A (Homo sapiens, UniProt Q8WYN0); experiment: ATG4 reporter GBRL2-PLA2 assay with recombinant ATG4A; assay type: biochemical; settings: for inhibitory effect on ATG4A proteolytic activity: recombinant ATG4A 5 nM, 100 nM GBRL2-PLA2, EDTA as positive control
T1 sequence (Q8WYN0 1-398): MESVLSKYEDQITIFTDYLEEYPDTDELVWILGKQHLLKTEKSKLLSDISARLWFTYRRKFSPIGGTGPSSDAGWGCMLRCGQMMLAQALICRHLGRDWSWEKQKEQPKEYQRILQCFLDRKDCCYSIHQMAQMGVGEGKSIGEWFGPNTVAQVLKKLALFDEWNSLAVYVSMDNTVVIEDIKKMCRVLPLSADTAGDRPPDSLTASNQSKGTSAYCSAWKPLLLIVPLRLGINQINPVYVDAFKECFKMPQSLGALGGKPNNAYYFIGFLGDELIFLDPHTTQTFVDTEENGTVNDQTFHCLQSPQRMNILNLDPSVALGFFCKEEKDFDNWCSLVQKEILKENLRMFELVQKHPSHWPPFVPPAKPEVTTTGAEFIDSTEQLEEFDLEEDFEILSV
Experimental: (§3) FIGS. 2A to 2C illustrate the inhibitory effects of GBRL2-derived peptides on ATG4 proteolytic activity according to several embodiments of the present invention. FIGS. 2A and 2B illustrate three α-helical peptides (H1, H2 and H3) derived from GBRL2, which were 2-fold serial titrated and mixed with recombinant ATG4A (5 nM) (FIG. 2A) or recombinant ATG4B (0.1 nM) (FIG. 2B) in the presence of 100 nM reporter GBRL2-PLA2, a general substrate for ATG4 members, to evaluate the inhibitory effect of peptides on ATG4A and ATG4B. The IC50 of peptides on ATG4B and ATG4A was analyzed by Prism 5.0. FIG. 2C illustrates the inhibitory activity of EDTA on proteolysis of ATG4 as a positive control in the upper panel. In the lower panel of FIG. 2C, the H2 peptide was further counter assayed with 0.5 nM caspase-3 and 100 μM DEVD-AFC to validate its specificity.
(§4) The reporter assay was modified from a previous report. Briefly, recombinant ATG4A or ATG4B was mixed with 100 nM GBRL2-PLA2 fusion protein in 20 μL PLA2 reaction buffer containing 20 mM Tris-HCl, pH 8.0, 2 mM CaCl2) and 1 mM DTT, and 20 μM 2-(6-(7-nitrobenz-2-oxa-1,3-diazol-4-yl)amino)hexanoyl-1-hexadecanoyl-sn-glycero-3-phosphocholine (NBD-C6-HPC) (Invitrogen, N-3786). Fluorescence intensity was measured within 30-60 minutes using Fluoroskan Ascent FL Reader (Thermo Fisher Scientific) at room temperature with excitation and emission wavelength of 485 nm and 530 nm, respectively. The IC50 of peptides on GBRL2-PLA2 was determined using nonlinear regression fitting of a series of progress curves.

[8] = target: T2, ATG4B (Homo sapiens, UniProt Q9Y4P1); experiment: ATG4 reporter GBRL2-PLA2 assay with recombinant ATG4B; assay type: biochemical; settings: for inhibitory effect on ATG4B proteolytic activity: recombinant ATG4B 0.1 nM, 100 nM GBRL2-PLA2, EDTA as positive control
T2 sequence (Q9Y4P1 1-393): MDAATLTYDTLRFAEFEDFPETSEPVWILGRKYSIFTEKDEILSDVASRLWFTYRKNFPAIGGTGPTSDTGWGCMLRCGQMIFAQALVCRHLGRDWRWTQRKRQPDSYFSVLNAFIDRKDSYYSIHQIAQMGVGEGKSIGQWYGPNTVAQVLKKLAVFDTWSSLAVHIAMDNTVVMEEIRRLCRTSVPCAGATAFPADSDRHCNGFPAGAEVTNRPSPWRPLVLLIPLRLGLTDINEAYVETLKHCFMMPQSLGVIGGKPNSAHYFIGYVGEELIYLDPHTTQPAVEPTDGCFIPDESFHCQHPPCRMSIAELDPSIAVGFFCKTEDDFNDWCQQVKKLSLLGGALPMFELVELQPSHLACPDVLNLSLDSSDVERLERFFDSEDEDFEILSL
Experimental: as §3, §4

[9] = tested on: HCT116 cells; experiment: clonogenic assay, HCT116 cells; assay type: cell-based, human; settings: peptide 5 μM, long-term treatment
Experimental: (§5) FIGS. 4A and 4B depict the cytotoxic effects of peptide (5 μM) in H4 cells (FIG. 4A) and HCT116 cells (FIG. 4B) further confirmed by clonogenic assay according to several embodiments of the present invention.
as §1

[10] = tested on: H4 cells; experiment: clonogenic assay, H4 cells; assay type: cell-based, human; settings: peptide 5 μM, long-term treatment
Experimental: as §5, §1

[11] = target: T2, ATG4B; experiment: ATG4B cleavage of chimeric GBRL2 substrate (N-terminal C-myc tag, C-terminal S-tag); assay type: biochemical
From the text: FIGS. 3A to 3C illustrate the effects of peptides on cellular ATG4 proteolysis and autophagic flux according to several embodiments of the present invention. FIG. 3A depicts H2 peptides derived from different ATG4 substrates, including MAP1LC3B, MAP1LC3C and GBR, GBRL2 were mixed with chimeric GBRL2 containing N-terminal C-myc tag and C-terminal S-tag. The S-tag GBRL2 in the upper panel and ratios of non-cleaved/cleaved Myc-tag GBRL2 in the lower panel are used to evaluate the inhibitory effects of the H2 peptides. FIG. 3B depicts human glioblastoma H4 cells and colorectal cancer HCT116 cells both treated with 10 μM GBRL2 H2 peptide alone (orange) or TAT peptide alone (red) or GBRL2 H2 peptide conjugated with TAT peptide (green) for 6 hours and analyzed with flow cytometer. […] The luciferase activity is measured to determine the inhibitory effects on cellular ATG4 proteolysis.
Further, H2 helical peptides from different ATG4 substrates were tested for ATG4B activity with GABARAL2 chimeric substrates, which contained N-terminal C-myc tag and C-terminal S-tag (FIG. 3A). Compared to the controls, the remaining S-tag and the ratio of full length C-myc tagged GBRL2/cleaved C-myc tagged GBRL2 levels were quantified to determine the inhibitory effects of peptides on ATG4B proteolytic activity toward GBRL2. […]

[12] = target: T3, caspase-3 (Homo sapiens, UniProt P42574); experiment: caspase-3 counter assay with DEVD-AFC; assay type: biochemical; settings: 0.5 nM caspase-3, 100 μM DEVD-AFC
T3 sequence (P42574 29-175 limits assumed): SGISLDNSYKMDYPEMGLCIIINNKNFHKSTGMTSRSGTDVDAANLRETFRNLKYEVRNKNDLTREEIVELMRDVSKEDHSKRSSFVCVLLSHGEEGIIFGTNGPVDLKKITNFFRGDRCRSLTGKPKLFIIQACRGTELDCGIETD
T3 sequence (P42574 176-277 limits assumed): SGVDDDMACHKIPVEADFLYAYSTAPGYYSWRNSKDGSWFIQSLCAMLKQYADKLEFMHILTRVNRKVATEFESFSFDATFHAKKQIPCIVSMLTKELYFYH
Experimental: as §3

[13] = tested on: HCT116 cells; experiment: invasion through Matrigel-coated Transwell filters; assay type: cell-based, human
From the text: FIGS. 5A to 5B illustrate the effects of GBRL2 peptides on cancer cell migration and invasion according to several embodiments of the present invention. FIG. 5A depicts the invasion of HCT116 cells examined with Matrigel-coated Transwell filters in the presence or absence of peptides, and the cell invasion results are quantified with ImageJ software. FIG. 5B depicts the quantified results for invasion expressed as the mean±SEM. *p<0.05; **p<0.01.
as §2

[14] = tested on: cellular ATG4; experiment: ATG4 cleavable luciferase assay in cells; assay type: cell-based, human; settings: HCT116 cells expressing ATG4 cleavable luciferase, 6 hours, ATG4B silencer as positive control
From the text: FIGS. 3A to 3C illustrate the effects of peptides on cellular ATG4 proteolysis and autophagic flux according to several embodiments of the present invention. FIG. 3A depicts H2 peptides derived from different ATG4 substrates, including MAP1LC3B, MAP1LC3C and GBR, GBRL2 were mixed with chimeric GBRL2 containing N-terminal C-myc tag and C-terminal S-tag. The S-tag GBRL2 in the upper panel and ratios of non-cleaved/cleaved Myc-tag GBRL2 in the lower panel are used to evaluate the inhibitory effects of the H2 peptides. FIG. 3B depicts human glioblastoma H4 cells and colorectal cancer HCT116 cells both treated with 10 μM GBRL2 H2 peptide alone (orange) or TAT peptide alone (red) or GBRL2 H2 peptide conjugated with TAT peptide (green) for 6 hours and analyzed with flow cytometer. FIG. 3C depicts the HCT116 cells expressing ATG4 cleavable luciferase treated with GBRL2 H2 peptide for 6 hours. The luciferase activity is measured to determine the inhibitory effects on cellular ATG4 proteolysis.
The plasmid MAP1LC3 wt-Luc or MAP1LC3 G120A-Luc (as a normalization control) was transfected into HEK293T (2000 cells/40 μL) seeded in 384-well white plates for overnight. The cells were treated with ATG4 inhibitors for 8 hours or 16 hours, followed by adding 200 μM D-luciferin (Promega) into each well to monitor the luciferase activity to reflect ATG4 activity in cells. […]

Substance | PI positive proportion [1] | cell viability [2] | cell migration [3] | cell viability [4] | PI positive proportion [5] | cell migration [6] | inhibitory effect on ATG4A proteolytic activity [7] | inhibitory effect on ATG4B proteolytic activity [8] | colony formation [9] | colony formation [10] | relative strength of inhibition on ATG4B among H2 peptides ([11]; compared with H2 peptides of other ATG4 substrates) | inhibition of ATG4B cleavage activity toward GBRL2 ([11]; remaining S-tag and ratio full length/cleaved C-myc tagged GBRL2) | IC50 on ATG4A, rank among H1, H2, H3 ([7]; GBRL2-PLA2 reporter assay) | effect on activity of caspase-3 [12] | invaded HCT116 cells [13] | IC50 on ATG4B, rank among H1, H2, H3 ([8]; GBRL2-PLA2 reporter assay) | cellular luciferase activity (cellular ATG4 proteolysis) [14]
TAT: Tat penetration domain, HIV-1 TAT basic domain, YGRKKRRQRRR, SEQ ID NO:2; control peptide (Ac-YGRKKRRQRRR-NH2) [reference compound] | no effects on PI uptake | no or little effects | not altered | no or little effects | no effects on PI uptake | not altered | – | – | – | – | – | – | – | – | – | – | –
H3: α-helical peptide derived from GBRL2, MGQLYEKE, SEQ ID NO:12 (Ac-MGQLYEKE-NH2) | – | – | – | – | – | – | showed inhibitory effects | showed inhibitory effects | – | – | – | – | – | – | – | – | –
H1: α-helical peptide derived from GBRL2, LEHRCVESAKIRAK, SEQ ID NO:11 (Ac-LEHRCVESAKIRAK-NH2) | – | – | – | – | – | – | showed inhibitory effects | showed inhibitory effects | – | – | – | – | – | – | – | – | –
α-helix 2 peptide derived from GBRL2 (GABARAPL2), VAQFMWIIRKR, SEQ ID NO:1 (VAQFMWIIRKR-NH2; not fully specified (N-terminus)) | slightly increased PI positive cells | no or little effects | not altered | no or little effects | slightly increased PI positive cells | not altered | showed inhibitory effects | showed inhibitory effects | reduced colony formation | reduced colony formation | strongest inhibition | inhibited ATG4B cleavage activity in dose dependent manner | lowest IC50 | no effects | significantly decreased the invaded HCT116 cells | lowest IC50 | elevated cellular luciferase activity
